Read-outs that look alike come from different tables or passages of the source.
Experiments:
[1] = target: T1, Human erythrocyte acetylcholinesterase (Homo sapiens, UniProt P22303); assay: biochemical; type: biochemical; conditions: AChE Inhibition In vitro IC50
T1 construct: Human erythrocyte acetylcholinesterase (type XIII, Sigma Israel); purchased Sigma Israel type XIII; host or cells: human erythrocytes
Experimental: Human erythrocyte acetylcholinesterase (type XIII, Sigma Israel), was prepared in a stock solution of 1 U/ml, containing Triton (1%) and bovine serum albumin (0.05%) in phosphate buffer (pH 8). The enzyme (0.05U) was incubated with 3-5 different concentrations of test compound (in triplicate) for periods of from 15 to 60 minutes at 37° C. […] The percentage inhibition of AChE by each concentration of drug is calculated by comparison with that of enzyme in the absence of drug.

MAO-A [2] = target: T2, MAO-A (Mus musculus, UniProt Q64133); assay: Inhibition of MAO activity ex vivo (brain); type: in vivo, mice; conditions: mice, brain tissue
T2 construct: from tissue; host or cells: mouse brain
T2 sequence (Q64133 1-526): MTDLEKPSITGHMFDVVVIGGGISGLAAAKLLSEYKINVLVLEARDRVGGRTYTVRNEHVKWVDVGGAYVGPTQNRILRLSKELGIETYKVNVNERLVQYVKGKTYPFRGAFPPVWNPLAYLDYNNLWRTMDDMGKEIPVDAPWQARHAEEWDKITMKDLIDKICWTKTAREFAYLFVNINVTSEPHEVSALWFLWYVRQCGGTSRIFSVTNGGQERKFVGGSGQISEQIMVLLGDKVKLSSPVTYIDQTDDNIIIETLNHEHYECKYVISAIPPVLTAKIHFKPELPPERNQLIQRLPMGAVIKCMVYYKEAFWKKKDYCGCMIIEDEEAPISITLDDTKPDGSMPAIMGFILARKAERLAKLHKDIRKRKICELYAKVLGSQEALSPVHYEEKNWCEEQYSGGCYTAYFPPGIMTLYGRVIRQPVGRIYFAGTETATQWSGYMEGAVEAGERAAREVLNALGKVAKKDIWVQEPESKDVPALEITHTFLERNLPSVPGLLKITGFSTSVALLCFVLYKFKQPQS
Experimental: (§1) Substrate concentrations used were 50 μM (PEA) and 1 mM (5-HT).
(§2) Male Sabra mice, weighing 45-50 g were injected with test compound solutions (prepared in 0.9% saline). Each dose was administered to two or three mice. The mice were sacrificed two hours after drug administration or at a time corresponding to the peak AChE inhibition time (see Table 11). The brain and liver were rapidly dissected and stored in appropriate vials on ice. The tissues were weighed, diluted to ½ in sucrose 0.3M and stored at −20° C. before performance of the MAO assay described above. The results given in Table 11 relate to measurements made on brain tissue only.

MAO-B [3] = target: T3, MAO-B (Mus musculus, UniProt Q8BW75); assay: Inhibition of MAO activity ex vivo (brain); type: in vivo, mice; conditions: mice, brain tissue
T3 construct: from tissue; host or cells: mouse brain
T3 sequence (Q8BW75 1-520): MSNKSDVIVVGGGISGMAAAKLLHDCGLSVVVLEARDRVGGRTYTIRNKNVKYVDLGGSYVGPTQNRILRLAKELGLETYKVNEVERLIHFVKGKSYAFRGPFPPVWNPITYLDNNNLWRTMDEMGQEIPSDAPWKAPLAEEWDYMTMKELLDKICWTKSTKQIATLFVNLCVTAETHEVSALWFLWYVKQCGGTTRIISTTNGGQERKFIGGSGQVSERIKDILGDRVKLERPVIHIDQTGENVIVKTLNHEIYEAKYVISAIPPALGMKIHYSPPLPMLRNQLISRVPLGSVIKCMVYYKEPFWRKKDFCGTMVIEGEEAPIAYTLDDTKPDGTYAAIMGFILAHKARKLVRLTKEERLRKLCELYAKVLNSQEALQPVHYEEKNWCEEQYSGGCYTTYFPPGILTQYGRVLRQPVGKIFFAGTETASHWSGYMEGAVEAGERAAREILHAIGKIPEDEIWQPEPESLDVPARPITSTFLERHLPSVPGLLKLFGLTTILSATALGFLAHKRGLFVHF
Experimental: as §1, §2

whole brain AChE = target: T4, whole brain AChE (Mus musculus, UniProt P21836); conditions: for AChE Inhibition Ex vivo ED50 (AC): mice, whole brain, at peak of activity; for AChE Inhibition Time to peak activity t / AChE Inhibition Time to return to 50% of peak t: mouse, in vivo
T4 sequence (P21836 32-614): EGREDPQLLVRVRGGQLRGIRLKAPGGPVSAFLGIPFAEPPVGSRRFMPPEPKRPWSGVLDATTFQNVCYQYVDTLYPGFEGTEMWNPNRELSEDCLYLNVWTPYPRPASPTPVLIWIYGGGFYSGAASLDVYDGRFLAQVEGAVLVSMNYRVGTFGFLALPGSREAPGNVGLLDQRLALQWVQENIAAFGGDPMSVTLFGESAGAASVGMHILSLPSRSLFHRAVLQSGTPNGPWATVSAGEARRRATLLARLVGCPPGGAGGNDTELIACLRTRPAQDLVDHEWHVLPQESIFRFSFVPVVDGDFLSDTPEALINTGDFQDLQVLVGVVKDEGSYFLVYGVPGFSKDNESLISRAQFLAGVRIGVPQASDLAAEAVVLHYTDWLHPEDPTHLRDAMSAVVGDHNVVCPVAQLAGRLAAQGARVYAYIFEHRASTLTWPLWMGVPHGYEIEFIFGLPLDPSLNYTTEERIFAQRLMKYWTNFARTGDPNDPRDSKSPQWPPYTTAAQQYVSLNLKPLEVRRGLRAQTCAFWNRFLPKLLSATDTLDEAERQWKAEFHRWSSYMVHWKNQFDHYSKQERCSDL

MAO-A [4] = target: T5, MAO-A (Rattus norvegicus, UniProt P21396); assay: Inhibition of MAO activity in vitro, 5-HT as substrate; type: biochemical; design: The MAO enzyme source was a homogenate of rat brain in 0.3M sucrose; from tissue; host or cells: rat brain homogenate, 600 g supernatant; conditions: 5-HT substrate
T5 sequence (P21396 1-526): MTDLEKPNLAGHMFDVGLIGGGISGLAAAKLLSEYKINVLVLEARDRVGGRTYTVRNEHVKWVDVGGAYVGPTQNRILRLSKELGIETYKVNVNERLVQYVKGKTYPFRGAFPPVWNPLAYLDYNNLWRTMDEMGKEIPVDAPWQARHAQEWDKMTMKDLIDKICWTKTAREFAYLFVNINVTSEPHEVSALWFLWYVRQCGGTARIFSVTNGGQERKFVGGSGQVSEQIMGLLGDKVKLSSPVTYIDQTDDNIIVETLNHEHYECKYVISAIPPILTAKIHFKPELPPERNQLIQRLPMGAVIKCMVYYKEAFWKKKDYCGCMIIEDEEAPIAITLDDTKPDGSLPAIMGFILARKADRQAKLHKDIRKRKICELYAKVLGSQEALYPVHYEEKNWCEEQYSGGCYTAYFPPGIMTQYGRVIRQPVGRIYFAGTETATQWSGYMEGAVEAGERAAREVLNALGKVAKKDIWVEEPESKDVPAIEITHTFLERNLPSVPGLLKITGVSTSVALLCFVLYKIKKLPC
Experimental: as §1

MAO-B [5] = target: T6, MAO-B (Rattus norvegicus, UniProt P19643); assay: Inhibition of MAO activity in vitro, PEA as substrate; type: biochemical; design: The MAO enzyme source was a homogenate of rat brain in 0.3M sucrose; from tissue; host or cells: rat brain homogenate, 600 g supernatant
T6 sequence (P19643 1-520): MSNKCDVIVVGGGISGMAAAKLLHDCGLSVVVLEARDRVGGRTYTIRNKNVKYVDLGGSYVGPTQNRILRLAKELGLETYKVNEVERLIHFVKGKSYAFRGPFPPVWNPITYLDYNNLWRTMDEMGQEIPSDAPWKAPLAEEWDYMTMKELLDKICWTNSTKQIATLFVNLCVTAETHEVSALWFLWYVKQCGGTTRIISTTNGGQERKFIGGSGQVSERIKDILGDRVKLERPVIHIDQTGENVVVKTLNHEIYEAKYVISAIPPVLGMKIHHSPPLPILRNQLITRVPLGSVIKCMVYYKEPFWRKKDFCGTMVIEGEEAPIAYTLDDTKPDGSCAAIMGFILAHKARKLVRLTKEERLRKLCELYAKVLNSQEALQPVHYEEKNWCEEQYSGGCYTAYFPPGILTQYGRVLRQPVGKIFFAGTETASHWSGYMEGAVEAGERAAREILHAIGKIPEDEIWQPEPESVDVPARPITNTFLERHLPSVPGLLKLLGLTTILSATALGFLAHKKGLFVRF
Experimental: as §1

[6] = MAO-A Inhibition In vitro IC50, rat brain homogenate
[7] = MAO-B Inhibition In vitro IC50, rat brain homogenate
[8] = rat brain homogenate, read-out: MAO-A Inhibition In vitro IC50
[9] = rat brain homogenate, read-out: MAO-B Inhibition In vitro IC50

T1 sequence (P22303 32-617 isoform P22303-2 limits assumed): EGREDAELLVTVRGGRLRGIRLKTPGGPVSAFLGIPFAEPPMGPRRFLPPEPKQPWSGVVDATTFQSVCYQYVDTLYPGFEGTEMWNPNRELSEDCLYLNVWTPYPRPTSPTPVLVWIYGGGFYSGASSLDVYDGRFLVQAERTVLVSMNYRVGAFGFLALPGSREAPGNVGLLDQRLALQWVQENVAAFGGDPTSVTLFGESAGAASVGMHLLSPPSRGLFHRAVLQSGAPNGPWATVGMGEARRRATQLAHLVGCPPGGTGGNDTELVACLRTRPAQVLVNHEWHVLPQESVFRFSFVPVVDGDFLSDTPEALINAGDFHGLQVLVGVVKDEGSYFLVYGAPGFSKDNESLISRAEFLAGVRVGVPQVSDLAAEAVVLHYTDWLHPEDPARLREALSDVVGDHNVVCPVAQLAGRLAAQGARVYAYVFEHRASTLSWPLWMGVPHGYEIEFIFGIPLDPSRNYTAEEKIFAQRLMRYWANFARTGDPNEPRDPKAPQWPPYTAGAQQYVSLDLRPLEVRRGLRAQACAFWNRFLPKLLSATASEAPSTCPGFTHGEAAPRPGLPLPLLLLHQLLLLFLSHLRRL
Experimental for mice: Therapeutic Ratio was calculated as LD50 divided by ED50 of ex vivo acetylcholine esterase inhibition.

C#CCNC1CCc2ccc(OC(=O)N(C)CCCC)cc21 (centres unmarked) [Compound 81]
IC50 [1]: 11.5 µM
MAO-A Inhibition Ex vivo ED50 (MAO-A [2]): >>100 μmoles/kg
MAO-B Inhibition Ex vivo ED50 (MAO-B [3]): >>100 μmoles/kg
AChE Inhibition Ex vivo ED50 (AC) (whole brain AChE): 40 µmol/kg
AChE Inhibition Time to peak activity t (whole brain AChE): 90 min
AChE Inhibition Time to return to 50% of peak t (whole brain AChE): >120 min
Acute Toxicity LD50 (LD) (mice; mouse, in vivo): 920 µmol/kg
Therapeutic Ratio LD/AC (mice; mouse, in vivo): 23

C#CCN(CC)C1CCc2ccc(OC(=O)N(C)C)cc21 (centres unmarked) [Compound 31]
IC50 [1]: 10 µM
MAO-A Inhibition Ex vivo ED50 (MAO-A [2]): >100 µmol/kg
MAO-B Inhibition Ex vivo ED50 (MAO-B [3]): >100 µmol/kg
AChE Inhibition Ex vivo ED50 (AC) (whole brain AChE): 110 µmol/kg
IC50 (MAO-A [4]; [6]): > 1000 µM
IC50 (MAO-B [5]; [7]): > 1000 µM

C#CCNC1CCc2c(OC(=O)N(C)CC)cccc21 (centres unmarked) [Compound 35]
IC50 [1]: 2.2 µM
AChE Inhibition Ex vivo ED50 (AC) (whole brain AChE): 10 µmol/kg
AChE Inhibition Time to peak activity t (whole brain AChE): 60 min
Acute Toxicity LD50 (LD) (mice; mouse, in vivo): 33 µmol/kg
Therapeutic Ratio LD/AC (mice; mouse, in vivo): 3.3
IC50 (MAO-A [4]; [6]): < 1 µM
IC50 (MAO-B [5]; [7]): 100 µM

C#CCNC1CCc2ccc(OC(=O)N(C)c3ccc(OC)cc3)cc21 (centres unmarked) [Compound 61]
IC50 [1]: 0.75 µM
MAO-A Inhibition Ex vivo ED50 (MAO-A [2]): >100 µmol/kg
MAO-B Inhibition Ex vivo ED50 (MAO-B [3]): >100 µmol/kg
AChE Inhibition Ex vivo ED50 (AC) (whole brain AChE): 47 µmol/kg
IC50 (MAO-A [4]; [8]): 700 µM
IC50 (MAO-B [5]; [9]): 500 µM

C#CCNC1CCc2ccc(OC(=O)N(C)C3CCCCC3)cc21 (centres unmarked) [Compound 38]
IC50 [1]: 33 µM
MAO-A Inhibition Ex vivo ED50 (MAO-A [2]): >400 µmol/kg
MAO-B Inhibition Ex vivo ED50 (MAO-B [3]): >400 µmol/kg
AChE Inhibition Ex vivo ED50 (AC) (whole brain AChE): >1000 µmol/kg
IC50 (MAO-A [4]; [8]): 170 µM
IC50 (MAO-B [5]; [9]): 10 µM

CNC1CCc2ccc(OC(=O)N(C)C)cc21 (centres unmarked) [Compound 8]
MAO-A Inhibition Ex vivo ED50 (MAO-A [2]): >>50 μmoles/kg
MAO-B Inhibition Ex vivo ED50 (MAO-B [3]): >>50 μmoles/kg
AChE Inhibition Ex vivo ED50 (AC) (whole brain AChE): 10.0 µmol/kg
AChE Inhibition Time to peak activity t (whole brain AChE): 15 to 30 min
AChE Inhibition Time to return to 50% of peak t (whole brain AChE): >60 min
Acute Toxicity LD50 (LD) (mice; mice, within 6 hours after administration): 87 µmol/kg
IC50 (MAO-A [4]; [8]): 50 µM

C#CCNC1CCc2ccc(OC(=O)N(C)c3ccccc3)cc21 (centres unmarked) [Compound 62]
IC50 [1]: 0.57 µM
MAO-A Inhibition Ex vivo ED50 (MAO-A [2]): >>200 μmoles/kg
MAO-B Inhibition Ex vivo ED50 (MAO-B [3]): >>200 μmoles/kg
AChE Inhibition Ex vivo ED50 (AC) (whole brain AChE): 290 µmol/kg
AChE Inhibition Time to peak activity t (whole brain AChE): 60 min
IC50 (MAO-A [4]; [8]): 80 µM
IC50 (MAO-B [5]; [9]): 100 µM

Source: patent USRE39616E1, “Aminoindan derivatives” (priority 1996, dated 2007)
